In ChEMBL document CHEMBL1150712, “Plant anticancer agents, XLIII. (E,E)-7, 12-dioxo-octadeca-8, 10-dien-1-oic acid (ostopanic acid), a cytotoxic fatty acid from Ostodes Paniculata” (1987):
≈ marks a conversion by molar mass, not a printed value.

System: P388
Test: Cytotoxicity against mouse P388 cells
Assay type: functional
Details: read-out: ED50 (the source's name)

CCCCCCC(=O)/C=C/C=C/C(=O)CCCCCC(=O)O [OSTOPANIC ACID]
EC50: 1.5 µg/mL (≈ 4.86 µM)
